In US12214079B2, “Micronized lipids” (MCAL Therapeutics Inc., priority 2021, dated 2025):
In brackets after ≈: the same amount, converted by molar mass. Entries after “also recorded” stand apart in the source; their conditions may differ. Where two headings read alike, the source gives them in different places.

Key:
[1] = General and physiochemical properties of MCAL-201 (solubility, hygroscopicity); assay type: physicochemical
Protocol: The general and physiochemical properties of MCAL-201 are: • 1,2-EPRG has a molecular weight of 611.05 g/mol • Empirical formula: C39H78O4 • Appearance: White powder • Particle size: 1-10 μm (post micronization) • Hygroscopicity: Low • Chirality: Racemic • Enantiomeric excess: 0 • Melting point: 57° C. • Solubility: Insoluble in water. Soluble in chloroform (40 mg/mL) and castor • oil (25 mg/mL)
However, preparation of a water soluble cyclodextrin inclusion complex of MCAL-201 was used in nonclinical efficacy studies. In addition, solutions of MCAL-201 in castor oil which can be emulsified to micron sized liquid particles in aqueous buffers can be used to deliver MCAL-201 directly to the tear film lipid layer.

[2] = Isomeric stability (1,2-EPRG to 1,3-EPRG acyl migration), NMR analysis of isomeric content; assay type: physicochemical
From the text: FIG. 4 provides NMR (nuclear magnetic resonance) spectral analysis of 1,3-EPRG and 1,2-EPRG isomeric content (1.15 mol % 1,3-EPRG) of MCAL-201 after jet mill micronization.
FIG. 5 provides NMR (nuclear magnetic resonance) spectral analysis of 1,3-EPRG and 1,2-EPRG isomeric content (0.0991 mol % 1,3-EPRG) of MCAL-201 after solid micronized MCAL-201suspension is stored at room temperature for 6 weeks.
This led to development of the delivery of solid MCAL-201 as a suspension of crystalline or amorphous micronized solid particle suspended in a water-based formulation isotonic with tear. Although MCAL-201 crystalline drug substance floated on phosphate buffered saline (PBS) it could be suspended following micronization to 1-10 micron particles which could be stably suspended in PBS with the aid of polysorbate 80 as a wetting agent and xanthan gum to adjust density and viscosity of the drug product.

naive dogs = assay: Non-GLP topical ocular dose range-finding toxicity and tolerability study (SPOTS scoring); assay type: in vivo; conditions: up to 10 mg/mL OU BID for 48 hours
Protocol: A non-GLP topical ocular administration dose range-finding pharmacology and toxicity study of MCAL-201 was conducted in naive dogs. The primary study objective was to assess the tolerability of topical ocular administration of MCAL-201 in dogs with a secondary objective to obtain data supporting pharmacological activity in healthy dogs.
The effects of vehicle and 0.1, 0.5, 1, 3 and 10 mg/mL MCAL-201 delivered as a 35 μL drop bilaterally QD (0.0035, 0.0175, 0.035, 0.105 and 0.35 mg/eye/day) were evaluated in Part I. The dosing regimen is summarized in 3.
(§1) Scoring of the ocular surface and anterior segment of the eye was performed using the SPOTS system by a board-certified veterinary ophthalmologist. SPOTS was performed for each concentration evaluated. To measure TBUT, fluorescein was instilled in the eye and the eye was manually closed and then gently opened to simulate a blink. The time interval between the opening of the eye and the first sign of disruption of the uniform tear film, as indicated by breaks in the fluorescein was recorded in seconds. The procedure was repeated three times on both eyes, first right than left eye. After BID dosing with 10 mg/mL MCAL-201, SPOTS was also performed at 48 hours after the last dose.

healthy dogs = assay: Tear film break-up time (TBUT) by fluorescein after topical ocular administration; assay type: in vivo, dog; conditions: 5 healthy adult dogs
Protocol: as §1

## CCCCCCCCCCCCCCCCCCCCOCC(CO)OC(=O)CCCCCCCCCCCCCCC (racemic) [MCAL-201, 1-O-eicosanyl-2-palmitoyl-rac-glycerol]
[1]
  Hygroscopicity: Low
[1]; castor oil, oil or lipid, read-out: Solubility in castor oil
  solubility: 25 mg/mL (≈ 40.9 mM)
[1]; chloroform, organic solvent or mixture, read-out: Solubility in chloroform
  solubility: 40 mg/mL (≈ 65.5 mM)
[1]; water
  Solubility in water: Insoluble; also recorded: extreme insolubility
[2]; after jet mill micronization
  1,3-EPRG isomeric content (NMR): 1.15 mol %
[2]; liquid solution phase
  Chemical stability (acyl migration of palmitoyl from 2 to 3 position): lacked long-term chemical stability
[2]; micronized, in the suspension formulation at room temperature
  Time for which isomeric stability was demonstrated: 6 weeks
[2]; particles recovered from formulated drug by centrifugation and washing
  Stability to the micronization process: chemical and isomeric stability
[2]; solid micronized suspension stored at room temperature for 6 weeks
  1,3-EPRG isomeric content (NMR): 0.0991 mol %
[2]; solid phase, compared with solution
  Isomeric stability: far greater than in solution
Naive dogs; any time or concentration evaluated
  Ocular or systemic adverse events: no ocular or systemic adverse events
Naive dogs; topical ocular 35 μL drop
  Tolerability: well tolerated
Healthy dogs
  Effect on TBUT: extended TBUT
